Measurements published in patent publication US20220144747A1, “SHIKIMATE ANALOGUES AND METHODS OF USE” (The Board of Regents of the University of Oklahoma, priority 2016, published 2022).
Values after ≈ are worked out from the molar mass of the structure shown.

Tests used:
[1] = Stability / isomerization in solvents; format: physicochemical; details: for stability in solvents: CH2Cl2, CHCl3, MeOH, and EtOH at room temperature; for stability on prolonged storage: in alcohol over several weeks
From the text: The resulting mixture was purified on HPLC yielding 4 and its diastereomer 5. […] The ^1H and ^13C NMR data of 4 and 5 were almost identical (Tables S2 and S3 of the appendix of U.S. Provisional Patent Application 62/295,343). […] Thus, the absolute configuration of C-3′-C-5′ was deduced as 3'S,4'S,5'S, opposite to that of 4.

[2] = Thiol neutralization on pig skin (LCMS); details: with spermine in 50% propylene glycol, 2-phenylethanethiol, 10 min
Description: After the Pericosine composition was applied to the thiol on the pig skin and allowed to react for 10 minutes, an eluate from the treated area was analyzed with LCMS. Only a pericosine-thiol conjugate was detected.
Pericosine A, spermine, and the model thiol compound 2-phenylethanethiol were prepared into 100 mM stock solutions in dimethyl sulfoxide (DMSO). 5 uL pericosine A and 5 uL spermine solutions were pre-mixed into 50 uL 50% propylene glycol to form a test composition. A piece of pig skin (1 inch×1 inch) was placed in a 10-cm ID petri dish. 5 uL of the thiol solution was dispensed onto the pig skin sample. The pericosine test composition was applied to the thiol-treated spot on the pig skin sample. The petri dish was covered and gently agitated to cause the thiol sample to mix with the pericosine test composition. After 10 min incubation, the solution on the pig skin was transferred using a pipet into an Eppendorf tube. The treated spot on the pig skin was extracted with 100 uL MeOH and the MeOH solution was combined with the solution in the Eppendorf tube. After mixing and centrifuging, the mixed solution was subjected to LCMS analysis.
As shown in FIG. 21(a), a major pericosine-thiol conjugated product was detected by the LCMS analysis in the solution removed from the pig skin.

[3] = test system: Tolypocladium sp. T1; assay: Antifungal test against T1 in PDB / PDB-N media (fresh or 5-day-old T1 broth); format: cell-based; details: for effect of supplemental NaNO3 in test medium on antifungal efficacy: against T1, PDB-N = PDB plus 2 g/L NaNO3; for sensitivity of T1 to antifungal activity, normal versus NaNO3-supplemented medium: freshly prepared media, 3-day test window; for resistance of T1 culture: test medium prepared from 5-day-old T1 culture broth, non-NaNO3-supplemented
From the text: (§1) Media types: PDB (potato dextrose broth); PDB-N(PDB plus 2 g/L NaNO3); PDB 8:2 (mixture of centrifuged broth of T1 grown in PDB for 5 days with fresh PDB at the ratio of 8:2); PDB-N 8:2 (mixture of centrifuged broth of T1 grown in PDB-N for 5 days with fresh PDB at the ratio of 8:2).
(§2) This prompted us to ask the question what effect the addition of the shikimate analogue moiety had on the bioactivities of compounds 8, 9, 12, and the other nucleophilic substances that we tested. A panel of fungi including four Tolypocladium spp. (T1-T4), four Penicillium spp. (P1-P4) and Aspergillus niger (A1) were selected for assessment. […] To test the capacity of 11 to block the toxicity of 13 in real time, fungal cultures were preincubated with 11 and then treated with varying doses of 13. This regimen of preadministering 11 afforded up to an 8-fold decrease in the MIC of 13 (FIG. 15A). […] We had also noted that the addition of NaNO3 to the culture medium thoroughly abolished the formation of 10 and 11. […] Whereas previously reported resistance mechanisms involving antibiotic modification depended on the enzymatic modification of target substrates, fungal metabolites 10 and 11 functioned as electrophilic warheads that were reactive to a wide variety of natural and synthetic organic substances. The actions of these metabolites serve to limit the deleterious effects of antibiotics/toxins against their microbial targets.
The effects of compounds on fungal growth of fungi were tested using the method described in the NCCLS M38-A guidelines with following modifications. Fungi were cultured on PDA plates (potato dextrose agar, Becton Dickinson and Company) at 25° C. for 6-10 days. The spores/mycelia were disrupted by mechanical agitation and diluted in RPMI 1640 medium (Sigma Chemical Corporation) buffered to pH 7.0 with MOPS (0.165 M, Sigma). Test compounds were prepared in DMSO or EtOH at stock concentrations of 10 mM before being serially diluted in 50 μL RPMI 1640 plus MOPS medium for testing. Aliquots of spore suspension were added to the medium containing the diluted compounds or vehicle (<1% by vol.). After 72 h of incubation at 25° C., the optical densities of fungi were measured using a microplate reader (Infinite M200, Tecan Group Ltd.). The minimum inhibitory concentration (MIC) for growth was defined as the lowest concentration causing prominent growth reduction (>80%). The RPMI 1640 medium was replaced by PDB medium or PDB-N(PDB with 2 g/L NaNO3) for the indicated antifungal tests.

[4] = test system: four Tolypocladium spp. (T1-T4), four Penicillium spp. (P1-P4) and Aspergillus niger (A1); assay: Antifungal test (MIC) against a panel of test fungi; format: cell-based; details: against all of the fungal strains of the panel, 72 h, 25° C., MIC = >80% growth reduction, read-out: MIC (growth inhibition)
Description: as §2, with “The actions of these metabolites serve to limit the deleterious effects of antibiotics/toxins against their microbial targets.” left out
(§3) The effects of compounds on fungal growth of fungi were tested using the method described in the NCCLS M38-A guidelines with following modifications. […] After 72 h of incubation at 25° C., the optical densities of fungi were measured using a microplate reader (Infinite M200, Tecan Group Ltd.). […]

[5] = test system: fungi T1, T2, P1, P4, and A1; assay: Antifungal test of 13 on fungal cultures preincubated / co-treated with 11; format: cell-based, Tolypocladium spp., Penicillium spp., Aspergillus niger
From the text: as §1
This prompted us to ask the question what effect the addition of the shikimate analogue moiety had on the bioactivities of compounds 8, 9, 12, and the other nucleophilic substances that we tested. A panel of fungi including four Tolypocladium spp. (T1-T4), four Penicillium spp. (P1-P4) and Aspergillus niger (A1) were selected for assessment. […] To test the capacity of 11 to block the toxicity of 13 in real time, fungal cultures were preincubated with 11 and then treated with varying doses of 13. This regimen of preadministering 11 afforded up to an 8-fold decrease in the MIC of 13 (FIG. 15A). […] We had also noted that the addition of NaNO3 to the culture medium thoroughly abolished the formation of 10 and 11. […]
as §3

[6] = test system: IL-1 alpha; assay: IL-1 alpha cytokine response in media of EpiDerm tissues (ELISA); format: cell-based, human; details: media of EpiDerm tissues after exposure
Description: IL-1 alpha secretion was not elevated in response to the test compounds, indicating a low potential for allergic reactions. […] Cytokine levels were determined by ELISA.

[7] = test system: EpiDerm™ reconstructed human epidermis tissues; assay: Time course toxicity in EpiDerm tissues (MTT assay); format: cell-based; details: after 24 hours
Description: All substances are safe for greater than 24 hours, at even a very high dose of 500 μM. […] Viability of EpiDerm™ tissues was determined by MTT assay.

Row | Compound | stability in solvents [1] | stability on prolonged storage [1] | effect of supplemental NaNO3 in test medium on antifungal efficacy [3] | sensitivity of T1 to antifungal activity, normal versus NaNO3-supplemented medium [3] | resistance of T1 culture [3] | other results
1 | pseudomaximiscin B [Compound 5] | stable for several days | modest levels of compound rearrangement | – | – | – | –
2 | COC(=O)C1=C[C@H](O)[C@H](O)[C@H](O)[C@H]1Cl [Compound 11, (+)-pericosine A] | – | – | – | – | – | neutralization of thiol on a surface (pig skin) ([2]; listed as Pericosine A): completely neutralize; neutralization of thiol on a surface (pig skin) ([2]; listed as pericosine A): quantitative consumption
3 | PF1140 [Compound 8] | – | – | enhanced | equally sensitive | increasingly resistant | –
4 | Cc1cc(C2CCCCC2)n(O)c(=O)c1 [Compound 13, ciclopirox] | – | – | enhanced | equally sensitive | increasingly resistant | MIC [4]: 1 to 50 µM (≈ 0.207 to 10.4 µg/mL); antifungal efficacy of 13 on co-treatment with 11 ([5]; co-treatment by 11 plus 13, fungi T1, T2, P1, P4, A1): reduced; decrease in the MIC of 13 ([5]; fungal cultures preincubated with 11, then treated with varying doses of 13): ≤ 8 fold
5 | Triton X-100 | – | – | – | – | – | IL-1 alpha secretion [6]: significant response; EpiDerm tissue outcome ([7]; 1% control in the test with activating compound and fragrance): epidermal death; EpiDerm tissue outcome ([7]; 1% control, MTT assay): epidermal death
6 | pseudomaximiscin A [Compound 4] | stable for several days | modest levels of compound rearrangement | – | – | – | stability in DMSO-d6 ([1]; dissolved in DMSO-d6): Rapid isomerization
